Key:
Test in all cases: Test B pre-/postemergence
Format in all cases: in vivo
Design in all cases: key: 0 is no effect; 10 is complete control
soybean (Glycine max) = tested on: soybean (Glycine max)
Procedure, shortened: (§1)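 Compounds in a surfactant-containing, non-phytotoxic solvent blend are applied to freshly planted seed (preemergence) and, concurrently, to seedlings of 2 to 18 cm at 1–4 leaves (postemergence). Plants stay in the greenhouse twelve to sixteen days and are then scored visually from 0 (no effect) to 10 (complete control).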

[1] = tested on: momingglory (Ipomoea hederacea)
Procedure, shortened: as §1

[2] = tested on: velvetleaf (Abutilon theophrasti)
Procedure, shortened: as §1

[3] = tested on: bedstraw (Galium aparine); conditions: for Bedstraw plant response rating: Preemergence
Procedure, shortened: as §1

corn (Zea mays) = conditions: for Corn plant response rating: Preemergence
Procedure, shortened: as §1

[4] = tested on: blackgrass (Alopecurus myosuroides); conditions: for Blackgrass plant response rating: Preemergence
Procedure, shortened: as §1

[5] = tested on: cocklebur (Xanthium strumarium); conditions: for Plant response rating, Cocklebur: Postemergence
Procedure, shortened: as §1

[6] = tested on: sugar beet (Beta vulgaris)
Procedure, shortened: as §1

[7] = tested on: crabgrass (Digitaria sanguinalis); conditions: for Crabgrass plant response rating: Preemergence
Procedure, shortened: as §1

wild oat (Avena fatua) = tested on: wild oat (Avena fatua)
Procedure, shortened: as §1

[8] = tested on: pigweed (Amaranthus retroflexus)
Procedure, shortened: as §1

[9] = tested on: broadleaf signalgrass (Brachiaria decumbens); conditions: for B. signalgrass plant response rating: Preemergence
Procedure, shortened: as §1

rape (Brassica napus) = tested on: rape (Brassica napus)
Procedure, shortened: as §1

[10] = tested on: wheat (Triticum aestivum)
Procedure, shortened: as §1

[11] = Rate 250 g/ha, Postemergence (so in the source)

CCc1cnc(-n2ccc(C(F)(F)F)n2)nc1Cc1cccc(C(F)(F)F)c1 [Compound 46]
Plant response rating, Soybean (soybean (Glycine max); Rate 62 g/ha, Postemergence): 8
Soybean plant response rating (soybean (Glycine max); Rate 62 g/ha, Preemergence): 1
Soybean plant response rating (soybean (Glycine max); Rate 125 g/ha, Postemergence): 8
Plant response rating, Soybean (soybean (Glycine max); Rate 125 g/ha, Preemergence): 3
Plant response rating, Soybean (soybean (Glycine max); Rate 250 g/ha, Postemergence): 9
Plant response rating, Soybean (soybean (Glycine max); [11]): 7
Plant response rating, Morningglory ([1]; Rate 62 g/ha, Postemergence): 9
Morningglory plant response rating ([1]; Rate 62 g/ha, Preemergence): 10
Morningglory plant response rating ([1]; Rate 125 g/ha, Postemergence): 10
Morningglory plant response rating ([1]; Rate 125 g/ha, Preemergence): 10
Plant response rating, Morningglory ([1]; Rate 250 g/ha, Postemergence): 10
Plant response rating, Morningglory [1, 11]: 10
Plant response rating, Velvetleaf ([2]; Rate 62 g/ha, Postemergence): 9
Velvetleaf plant response rating ([2]; Rate 62 g/ha, Preemergence): 10
Velvetleaf plant response rating ([2]; Rate 125 g/ha, Postemergence): 9
Plant response rating, Velvetleaf ([2]; Rate 125 g/ha, Preemergence): 10
Plant response rating, Velvetleaf ([2]; Rate 250 g/ha, Postemergence): 9
Plant response rating, Velvetleaf [2, 11]: 10
Plant response rating, Bedstraw ([3]; Rate 62 g/ha, Postemergence): 8
Bedstraw plant response rating ([3]; Rate 62 g/ha): 8
Plant response rating, Bedstraw ([3]; Rate 125 g/ha, Postemergence): 9
Bedstraw plant response rating ([3]; Rate 125 g/ha): 9
Plant response rating, Bedstraw ([3]; Rate 250 g/ha, Postemergence): 10
Plant response rating, Bedstraw [3, 11]: 10
Plant response rating, Corn (corn (Zea mays); Rate 62 g/ha, Postemergence): 2
Corn plant response rating (corn (Zea mays); Rate 62 g/ha): 0
Plant response rating, Corn (corn (Zea mays); Rate 125 g/ha, Postemergence): 2
Corn plant response rating (corn (Zea mays); Rate 125 g/ha): 1
Plant response rating, Corn (corn (Zea mays); Rate 250 g/ha, Postemergence): 3
Plant response rating, Corn (corn (Zea mays); [11]): 3
Plant response rating, Blackgrass ([4]; Rate 62 g/ha, Postemergence): 4
Blackgrass plant response rating ([4]; Rate 62 g/ha): 8
Plant response rating, Blackgrass ([4]; Rate 125 g/ha, Postemergence): 5
Blackgrass plant response rating ([4]; Rate 125 g/ha): 8
Plant response rating, Blackgrass ([4]; Rate 250 g/ha, Postemergence): 6
Plant response rating, Blackgrass [4, 11]: 10
Plant response rating, Cocklebur ([5]; Rate 62 g/ha): 8
Cocklebur plant response rating ([5]; Rate 62 g/ha, Preemergence): 10
Plant response rating, Cocklebur ([5]; Rate 125 g/ha): 9
Plant response rating, Cocklebur ([5]; Rate 250 g/ha): 9
Plant response rating, Sugarbeets ([6]; Rate 62 g/ha, Postemergence): 10
Sugarbeets plant response rating ([6]; Rate 62 g/ha, Preemergence): 10
Sugarbeets plant response rating ([6]; Rate 125 g/ha, Postemergence): 10
Plant response rating, Sugarbeets ([6]; Rate 125 g/ha, Preemergence): 10
Plant response rating, Sugarbeets ([6]; Rate 250 g/ha, Postemergence): 10
Plant response rating, Sugarbeets [6, 11]: 10
Plant response rating, Crabgrass ([7]; Rate 62 g/ha, Postemergence): 6
Crabgrass plant response rating ([7]; Rate 62 g/ha): 9
Plant response rating, Crabgrass ([7]; Rate 125 g/ha, Postemergence): 6
Crabgrass plant response rating ([7]; Rate 125 g/ha): 9
Plant response rating, Crabgrass ([7]; Rate 250 g/ha, Postemergence): 8
Plant response rating, Crabgrass [7, 11]: 10
Wild oats plant response rating (wild oat (Avena fatua); Rate 62 g/ha, Postemergence): 3
Wild oats plant response rating (wild oat (Avena fatua); Rate 62 g/ha, Preemergence): 6
Wild oats plant response rating (wild oat (Avena fatua); Rate 125 g/ha, Postemergence): 4
Plant response rating, Wild oats (wild oat (Avena fatua); Rate 125 g/ha, Preemergence): 8
Plant response rating, Wild oats (wild oat (Avena fatua); Rate 250 g/ha, Postemergence): 4
Plant response rating, Wild oats (wild oat (Avena fatua); [11]): 9
Plant response rating, Redroot pigweed ([8]; Rate 62 g/ha, Postemergence): 9
Redroot pigweed plant response rating ([8]; Rate 62 g/ha, Preemergence): 10
Redroot pigweed plant response rating ([8]; Rate 125 g/ha, Postemergence): 9
Redroot pigweed plant response rating ([8]; Rate 125 g/ha, Preemergence): 10
Plant response rating, Redroot pigweed ([8]; Rate 250 g/ha, Postemergence): 10
Plant response rating, Redroot pigweed [8, 11]: 10
Plant response rating, B. signalgrass ([9]; Rate 62 g/ha, Postemergence): 3
B. signalgrass plant response rating ([9]; Rate 62 g/ha): 9
Plant response rating, B. signalgrass ([9]; Rate 125 g/ha, Postemergence): 4
B. signalgrass plant response rating ([9]; Rate 125 g/ha): 9
Plant response rating, B. signalgrass ([9]; Rate 250 g/ha, Postemergence): 5
Plant response rating, B. signalgrass ([9]; Rate 250 g/ha, Postemergence as printed in head r139 (second section for compounds 26-50)): 9
Plant response rating, Rape (rape (Brassica napus); Rate 62 g/ha, Postemergence): 9
Rape plant response rating (rape (Brassica napus); Rate 62 g/ha, Preemergence): 9
Rape plant response rating (rape (Brassica napus); Rate 125 g/ha, Postemergence): 9
Rape plant response rating (rape (Brassica napus); Rate 125 g/ha, Preemergence): 9
Plant response rating, Rape (rape (Brassica napus); Rate 250 g/ha, Postemergence): 9
Plant response rating, Rape (rape (Brassica napus); [11]): 10
Wheat plant response rating ([10]; Rate 62 g/ha, Postemergence): 3
Wheat plant response rating ([10]; Rate 62 g/ha, Preemergence): 1
Wheat plant response rating ([10]; Rate 125 g/ha, Postemergence): 3
Plant response rating, Wheat ([10]; Rate 125 g/ha, Preemergence): 3
Plant response rating, Wheat ([10]; Rate 250 g/ha, Postemergence): 4
Plant response rating, Wheat [10, 11]: 5

From patent US6525001B1, “Substituted pyrimidine and pyridine herbicides” (Mid-American Commercialization Corporation, priority 1997, dated 2003)
